Reference: paper PMC6900016, “Synthesis of Indomorphan Pseudo‐Natural Product Inhibitors of Glucose Transporters GLUT‐1 and ‐3” (Angewandte Chemie (International Ed. in English), 2019)

Assays:
Assay in all cases: cells
Parameters in all cases: Cell growth inhibition, sulforhodamine B total protein staining
786O = conditions: Homo sapiens, 786-0; 72 h growth; read-out: Cell growth inhibition IC50/µM
Procedure: (§1) Cell panel profiling A panel of 94 cell lines was exposed to Glupin for 72 h to assess the influence on cell growth (Oncolead, Germany). Cell growth was determined using sulforhodamine B assay. Measurements were performed using a total protein staining protocol. Briefly, after treatement cells were fixed addition of 10% TCA (for adherent growing cells) or 50% TCA (for semi-adherent growing cells or cells growing in suspension). After an incubation at 4°C for 1 h, plates were washed twice with 400 μl of deionized water and dried. Cells were then stained with 100 μl of 0.04% wt/v sulforhodamine B. Plates were incubated at room temperature for at least 30 min and washed six times with 1% acetic acid to remove unbound stain. […] This effect was much stronger at a physiological glucose concentration (5 mM; Figure 5 b,c). […] IC50 values lower than 300 nM were obtained for more than 20 cell lines, whereas 24 cell lines were not affected by the compound, among them the peripheral blood mononuclear control cells (PBMCs). Sensitivity to Glupin was detected across various tissue types (Table S6).

A431 = conditions: Homo sapiens, A-431; 72 h growth; read-out: Cell growth inhibition IC50/µM
Procedure: as §1

BXPC3 = conditions: Homo sapiens, BXPC-3; 72 h growth; read-out: Cell growth inhibition IC50/µM
Procedure: as §1

CAKI1 = conditions: Homo sapiens, CAKI-1; 72 h growth; read-out: Cell growth inhibition IC50/µM
Procedure: as §1

CALU6 = conditions: Homo sapiens, Calu-6; 72 h growth; read-out: Cell growth inhibition IC50/µM
Procedure: as §1

CLS439 = conditions: 72 h growth; read-out: Cell growth inhibition IC50/µM
Procedure: as §1

COLO205 = conditions: Homo sapiens, COLO 205; 72 h growth; read-out: Cell growth inhibition IC50/µM
Procedure: as §1

DU145 = conditions: Homo sapiens, DU-145; 72 h growth; read-out: Cell growth inhibition IC50/µM
Procedure: as §1

EJ28 = conditions: Homo sapiens, EJ-28; 72 h growth; read-out: Cell growth inhibition IC50/µM
Procedure: as §1

HS729 = conditions: 72 h growth; read-out: Cell growth inhibition IC50/µM
Procedure: as §1

LOVO = conditions: Homo sapiens, LoVo; 72 h growth; read-out: Cell growth inhibition IC50/µM
Procedure: as §1

MDAMB231 = conditions: Homo sapiens, MDA-MB-231; 72 h growth; read-out: Cell growth inhibition IC50/µM
Procedure: as §1

MHHES1 = conditions: Homo sapiens, MHH-ES-1; 72 h growth; read-out: Cell growth inhibition IC50/µM
Procedure: as §1

OVCAR4 = conditions: Homo sapiens, OVCAR-4; 72 h growth; read-out: Cell growth inhibition IC50/µM
Procedure: as §1

PANC1005 = conditions: Homo sapiens, Panc1005; 72 h growth; read-out: Cell growth inhibition IC50/µM
Procedure: as §1

SAOS2 = conditions: Homo sapiens, SAOS-2; 72 h growth; read-out: Cell growth inhibition IC50/µM
Procedure: as §1

SKBR3 = conditions: Homo sapiens, SK-BR-3; 72 h growth; read-out: Cell growth inhibition IC50/µM
Procedure: as §1

SKLMS1 = conditions: Homo sapiens, SK-LMS-1; 72 h growth; read-out: Cell growth inhibition IC50/µM
Procedure: as §1

SKNSH = conditions: Homo sapiens, SK-N-SH; 72 h growth; read-out: Cell growth inhibition IC50/µM
Procedure: as §1

T24 = conditions: Homo sapiens, T-24; 72 h growth; read-out: Cell growth inhibition IC50/µM
Procedure: as §1

THP1 = conditions: Homo sapiens, THP-1; 72 h growth; read-out: Cell growth inhibition IC50/µM
Procedure: as §1

U87MG = conditions: Homo sapiens, U-87 MG; 72 h growth; read-out: Cell growth inhibition IC50/µM
Procedure: as §1

WSUNHL = conditions: Homo sapiens, WSU-NHL; 72 h growth; read-out: Cell growth inhibition IC50/µM
Procedure: as §1

## CCOC(=O)Cn1c2c(c3ccccc31)C[C@@H]1C[C@H]2C(OC)CN1C(=O)c1cccnc1SC (single isomer, unassigned; (+)) [(+)-5a, Glupin]
786O
  IC50: 0.274 µM
A431
  IC50: 0.23 µM
BXPC3
  IC50: 0.591 µM
CAKI1
  IC50: 0.805 µM
CALU6
  IC50: 0.538 µM
CLS439
  IC50: 0.24 µM
COLO205
  IC50: 3.73 µM
DU145
  IC50: 0.317 µM
EJ28
  IC50: 1.39 µM
HS729
  IC50: > 30 µM
LOVO
  IC50: 5.41 µM
MDAMB231
  IC50: 8.38 µM
MHHES1
  IC50: 1.49 µM
OVCAR4
  IC50: 1.41 µM
PANC1005
  IC50: 0.269 µM
SAOS2
  IC50: > 30 µM
SKBR3
  IC50: > 30 µM
SKLMS1
  IC50: 0.699 µM
SKNSH
  IC50: 0.084 µM
T24
  IC50: 0.243 µM
THP1
  IC50: > 30 µM
U87MG
  IC50: > 30 µM
WSUNHL
  IC50: 0.062 µM
